# From patent US20120270819A1, “USE OF COMPOUNDS WITH SGLT-1/SGLT-2 INHIBITOR ACTIVITY FOR PRODUCING MEDICAMENTS FOR TREATMENT OF BONE DISEASE” (SANOFI, priority 2009, published 2012)
# Biological target: T1, human sodium-dependent glucose transporter 1 (SGLT1, SLC5A1) (Homo sapiens, UniProt P13866)
# T1 construct: Bases 11 to 2005 correspond to the complete coding region of human SGLT1; expressed in transfected cells; host or cells: CHO-TRex cells (Invitrogen), pcDNA4/TO vector, tetracycline-induced
# T1 sequence (P13866 1-664): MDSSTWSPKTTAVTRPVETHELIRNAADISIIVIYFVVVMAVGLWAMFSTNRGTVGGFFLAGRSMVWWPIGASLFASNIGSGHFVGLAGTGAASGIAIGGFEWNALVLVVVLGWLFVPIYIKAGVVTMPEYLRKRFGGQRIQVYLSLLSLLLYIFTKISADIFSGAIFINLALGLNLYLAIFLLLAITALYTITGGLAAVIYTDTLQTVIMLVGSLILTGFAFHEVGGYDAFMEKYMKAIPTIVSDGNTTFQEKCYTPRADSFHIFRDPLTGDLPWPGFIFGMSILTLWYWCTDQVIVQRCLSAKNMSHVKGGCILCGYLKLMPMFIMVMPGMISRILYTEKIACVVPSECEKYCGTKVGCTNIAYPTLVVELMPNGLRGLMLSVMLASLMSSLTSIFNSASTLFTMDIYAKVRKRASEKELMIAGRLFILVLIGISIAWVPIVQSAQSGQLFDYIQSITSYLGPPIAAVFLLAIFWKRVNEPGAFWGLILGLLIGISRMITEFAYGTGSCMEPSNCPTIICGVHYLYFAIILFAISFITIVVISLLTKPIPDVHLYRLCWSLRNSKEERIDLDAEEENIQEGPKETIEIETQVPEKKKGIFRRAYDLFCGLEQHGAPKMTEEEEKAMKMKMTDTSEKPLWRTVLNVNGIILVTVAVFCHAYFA
# Test: Inhibition of methyl α-D-glucopyranoside uptake in CHO-TRex-hSGLT1 cells
# Type: cell-based
# Details: recombinant SGLT1; read-out: IC50 SGLT 1
# Source text: A further method for testing the activity of the compounds is the inhibition of the transport activity of the human sodium-dependent glucose transporter 1 (SGLT1, SLC5A1) in vitro:
# 1. Cloning of an Expression Vector for Human SGLT1
# The cDNA for human SGLT1 was introduced into the pcDNA4/TO vector (Invitrogen) by standard methods of molecular biology as described in Sambrook et al. (Sambrook et al., Molecular Cloning, A Laboratory Manual, 2nd Edition). […] Bases 11 to 2005 correspond to the complete coding region of human SGLT1.
# 2. Preparation of a Recombinant Cell Line with Inducible Expression of Human SGLT1
# The expression vector for human SGLT1 was introduced into CHO-TRex cells (Invitrogen) by means of FuGene6 lipofection (Roche). To select single cell clones, 600 μg/ml Zeocin (Invitrogen) was added to the cell culture medium (Nutrient Mixture F-12 (Ham), (Invitrogen) supplemented with 10% fetal calf serum (BD Biosciences), 10 μg/ml blasticidin S(CN Biosciences), 100 units/ml penicillin, 100 units/ml streptomycin). The functionality of the single cell clones resulting from the selection was tested via their uptake activity for radiolabeled methyl α-D-glucopyranoside. The cell clone with the greatest uptake activity for methyl α-D-glucopyranoside, referred to as CHO-TRex-hSGLT1 hereinafter, was selected for further experiment, and cultivation was continued in the presence of 600 μg/ml of zeocin.
# 3. Measurement of the Inhibitory Effect of Test Substances on the Uptake of Methyl-D-qlucopyranoside (-MDG)
# CHO-TRex-hSGLT1 cells were seeded in a concentration of 50 000 cells per well in Cytostar-T scintillating 96-well plates (Amersham Biosciences) in cell culture medium and cultivated for 24 h. Expression of the recombinant human SGLT1 was induced by adding 1 μg/ml tetracyclin for a further 24 h. For α-MDG uptake experiments, the cells were washed with PBS and then starved (PBS supplemented with 10% fetal calf serum) at 37° C. for one hour. […]
# The final concentration of methyl α-D-glucopyranoside in the assay was 50 μM. After an incubation time of 30 min at room temperature, the reaction was stopped by adding 50 μl/well of 10 mM methyl α-D-glucopyranoside in transport assay buffer (4° C.), and the radioactivity uptake by the cells was determined in a MicroBeta Scintillation Microplate Reader (Wallac). The half-maximum inhibitory effect of the test substances (IC50) was determined in the following way: • 1. […] This is the measurement in the absence of substance, measured in sodium-containing transport assay buffer. • 2. […] This is the measurement in the absence of substance, measured in sodium-free transport assay buffer (140 mM choline chloride, 2 mM potassium chloride, 1 mM magnesium chloride, 1 mM calcium chloride, 10 mM HEPES/Tris, pH7.5). • 3. […]
row,IC50 [nM],Compound
1,770,COc1ccc(Cc2ccccc2OC2OC(CO)C(F)C(O)C2O)cc1 (stereo not shown) [Example 1 of formula III]
2,29,COc1ccc(Cc2c(OC3OC(CO)C(F)C(O)C3O)n[nH]c2C(F)(F)F)cc1 (stereo not shown) [Example 5 of formula II]
3,320,CCc1ccc(Cc2ccccc2OC2OC(CO)C(F)C(O)C2O)cc1 (stereo not shown) [Example 20 of formula III]
4,27,CC(C)c1[nH]nc(OC2OC(CO)C(F)C(O)C2O)c1Cc1ccc(CCCC(=O)NC(CO)(CO)CO)cc1 (stereo not shown) [Example 21 of formula I]
